Source: ChEMBL document CHEMBL3593218, “4,6-Substituted-1,3,5-triazin-2(1H)-ones as monocyclic catalytic inhibitors of human DNA topoisomerase IIα targeting the ATP binding site” (Bioorg Med Chem, 2015)
Values joined by “and” are separate entries in the source; they are usually repeats but may differ in a detail not shown here. Equal values may be shown once.

Key:
[1] = biological target: T1, DNA topoisomerase 2-alpha (Homo sapiens, UniProt P11388); experiment: Inhibition of human DNA topoisomerase IIalpha assessed as reduction in enzyme-catalyzed supercoiling of relaxed circular pBR322 DNA by measuring linear DNA level at 15.625 uM after 60 mins by agarose gel electrophoresis; design: scale not given: the % may be the effect or the level left
[2] = biological target: T1, DNA topoisomerase 2-alpha; experiment: Inhibition of human DNA topoisomerase IIalpha assessed as reduction in enzyme-catalyzed supercoiling of relaxed circular pBR322 DNA by measuring linear DNA level at 3.9 uM after 60 mins by agarose gel electrophoresis in presence of 50 uM of etoposide; design: scale not given: the % may be the effect or the level left
[3] = biological target: T1, DNA topoisomerase 2-alpha; experiment: Inhibition of human DNA topoisomerase IIalpha assessed as reduction in enzyme-catalyzed supercoiling of relaxed circular pBR322 DNA by measuring linear DNA level at 125 uM after 60 mins by agarose gel electrophoresis in presence of 62.5 uM of etoposide; design: scale not given: the % may be the effect or the level left
[4] = biological target: T1, DNA topoisomerase 2-alpha; experiment: Inhibition of human DNA topoisomerase IIalpha assessed as reduction in enzyme-catalyzed supercoiling of relaxed circular pBR322 DNA by measuring linear DNA level at 500 uM after 60 mins by agarose gel electrophoresis in presence of 62.5 uM of etoposide; design: scale not given: the % may be the effect or the level left
[5] = biological target: T1, DNA topoisomerase 2-alpha; experiment: Inhibition of human DNA topoisomerase IIalpha assessed as decatenation of kDNA at 125 uM after 90 mins by ethidium bromide staining; design: scale not given: the % may be the effect or the level left
[6] = biological target: T1, DNA topoisomerase 2-alpha; experiment: Inhibition of human DNA topoisomerase IIalpha assessed as decatenation of kDNA at 31.5 uM after 90 mins by ethidium bromide staining; design: scale not given: the % may be the effect or the level left
[7] = biological target: T1, DNA topoisomerase 2-alpha; experiment: Inhibition of human DNA topoisomerase IIalpha assessed as decatenation of kDNA after 90 mins by ethidium bromide staining
[8] = biological target: T1, DNA topoisomerase 2-alpha; experiment: Inhibition of human DNA topoisomerase IIalpha assessed as reduction in enzyme-catalyzed supercoiling of relaxed circular pBR322 DNA by measuring linear DNA level at 500 uM after 60 mins by agarose gel electrophoresis in presence of 50 uM of etoposide; design: scale not given: the % may be the effect or the level left
[9] = biological target: T1, DNA topoisomerase 2-alpha; experiment: Inhibition of human DNA topoisomerase IIalpha ATPase activity assessed as residual ATP hydrolysis at 31.5 uM measured up to 60 mins
[10] = biological target: T1, DNA topoisomerase 2-alpha; experiment: Inhibition of human DNA topoisomerase IIalpha ATPase activity assessed as residual ATP hydrolysis at 3.9 uM measured up to 60 mins
[11] = biological target: T1, DNA topoisomerase 2-alpha; experiment: Inhibition of human DNA topoisomerase IIalpha assessed as reduction in enzyme-catalyzed supercoiling of relaxed circular pBR322 DNA by measuring linear DNA level at 125 uM after 60 mins by agarose gel electrophoresis; design: scale not given: the % may be the effect or the level left
[12] = biological target: T1, DNA topoisomerase 2-alpha; experiment: Inhibition of human DNA topoisomerase IIalpha assessed as reduction in enzyme-catalyzed supercoiling of relaxed circular pBR322 DNA by measuring linear DNA level at 3.9 uM after 60 mins by agarose gel electrophoresis in presence of 62.5 uM of etoposide; design: scale not given: the % may be the effect or the level left
[13] = biological target: T1, DNA topoisomerase 2-alpha; experiment: Inhibition of human DNA topoisomerase IIalpha assessed as reduction in enzyme-catalyzed supercoiling of relaxed circular pBR322 DNA by measuring linear DNA level at 500 uM after 60 mins by agarose gel electrophoresis; design: scale not given: the % may be the effect or the level left
[14] = biological target: T1, DNA topoisomerase 2-alpha; experiment: Inhibition of human DNA topoisomerase IIalpha assessed as reduction in enzyme-catalyzed supercoiling of relaxed circular pBR322 DNA by measuring linear DNA level at 3.9 uM after 60 mins by agarose gel electrophoresis; design: scale not given: the % may be the effect or the level left
[15] = biological target: T1, DNA topoisomerase 2-alpha; experiment: Inhibition of human DNA topoisomerase IIalpha assessed as decatenation of kDNA at 500 uM after 90 mins by ethidium bromide staining; design: scale not given: the % may be the effect or the level left
[16] = biological target: T1, DNA topoisomerase 2-alpha; experiment: Inhibition of human DNA topoisomerase IIalpha assessed as reduction in enzyme-catalyzed supercoiling of relaxed circular pBR322 DNA by measuring linear DNA level at 50 uM after 60 mins by agarose gel electrophoresis; design: scale not given: the % may be the effect or the level left
[17] = biological target: T1, DNA topoisomerase 2-alpha; experiment: Inhibition of human DNA topoisomerase IIalpha ATPase activity assessed as residual ATP hydrolysis at 125 uM measured up to 60 mins
[18] = biological target: T1, DNA topoisomerase 2-alpha; experiment: Inhibition of human DNA topoisomerase IIalpha assessed as reduction in enzyme-catalyzed supercoiling of relaxed circular pBR322 DNA by measuring linear DNA level at 125 uM after 60 mins by agarose gel electrophoresis in presence of 50 uM of etoposide; design: scale not given: the % may be the effect or the level left
[19] = biological target: T1, DNA topoisomerase 2-alpha; experiment: Inhibition of human DNA topoisomerase IIalpha assessed as reduction in enzyme-catalyzed supercoiling of relaxed circular pBR322 DNA by measuring linear DNA level at 31.5 uM after 60 mins by agarose gel electrophoresis in presence of 50 uM of etoposide; design: scale not given: the % may be the effect or the level left
[20] = biological target: T1, DNA topoisomerase 2-alpha; experiment: Inhibition of human DNA topoisomerase IIalpha using plasmid pNO1 as a substrate after 30 mins
[21] = biological target: T1, DNA topoisomerase 2-alpha; experiment: Inhibition of human DNA topoisomerase IIalpha assessed as reduction in enzyme-catalyzed supercoiling of relaxed circular pBR322 DNA by measuring linear DNA level after 60 mins by agarose gel electrophoresis
[22] = biological target: T1, DNA topoisomerase 2-alpha; experiment: Inhibition of human DNA topoisomerase IIalpha ATPase activity assessed as residual ATP hydrolysis at 500 uM measured up to 60 mins
[23] = Lipophilicity, log P of the compound; type: physicochemical; settings: octanol/water
[24] = biological target: T1, DNA topoisomerase 2-alpha; experiment: Inhibition of human DNA topoisomerase IIalpha assessed as decatenation of kDNA at 3.9 uM after 90 mins by ethidium bromide staining; design: scale not given: the % may be the effect or the level left
[25] = biological target: T1, DNA topoisomerase 2-alpha; experiment: Inhibition of human DNA topoisomerase IIalpha assessed as reduction in enzyme-catalyzed supercoiling of relaxed circular pBR322 DNA by measuring linear DNA level at 62.5 uM after 60 mins by agarose gel electrophoresis; design: scale not given: the % may be the effect or the level left
[26] = biological target: T1, DNA topoisomerase 2-alpha; experiment: Inhibition of human DNA topoisomerase IIalpha assessed as reduction in enzyme-catalyzed supercoiling of relaxed circular pBR322 DNA by measuring linear DNA level at 31.5 uM after 60 mins by agarose gel electrophoresis in presence of 62.5 uM of etoposide; design: scale not given: the % may be the effect or the level left
[27] = biological target: T1, DNA topoisomerase 2-alpha; experiment: Inhibition of human DNA topoisomerase IIalpha assessed as reduction in enzyme-catalyzed supercoiling of relaxed circular pBR322 DNA by measuring linear DNA level at 31.5 uM after 60 mins by agarose gel electrophoresis; design: scale not given: the % may be the effect or the level left

T1 sequence (P11388 whole entry): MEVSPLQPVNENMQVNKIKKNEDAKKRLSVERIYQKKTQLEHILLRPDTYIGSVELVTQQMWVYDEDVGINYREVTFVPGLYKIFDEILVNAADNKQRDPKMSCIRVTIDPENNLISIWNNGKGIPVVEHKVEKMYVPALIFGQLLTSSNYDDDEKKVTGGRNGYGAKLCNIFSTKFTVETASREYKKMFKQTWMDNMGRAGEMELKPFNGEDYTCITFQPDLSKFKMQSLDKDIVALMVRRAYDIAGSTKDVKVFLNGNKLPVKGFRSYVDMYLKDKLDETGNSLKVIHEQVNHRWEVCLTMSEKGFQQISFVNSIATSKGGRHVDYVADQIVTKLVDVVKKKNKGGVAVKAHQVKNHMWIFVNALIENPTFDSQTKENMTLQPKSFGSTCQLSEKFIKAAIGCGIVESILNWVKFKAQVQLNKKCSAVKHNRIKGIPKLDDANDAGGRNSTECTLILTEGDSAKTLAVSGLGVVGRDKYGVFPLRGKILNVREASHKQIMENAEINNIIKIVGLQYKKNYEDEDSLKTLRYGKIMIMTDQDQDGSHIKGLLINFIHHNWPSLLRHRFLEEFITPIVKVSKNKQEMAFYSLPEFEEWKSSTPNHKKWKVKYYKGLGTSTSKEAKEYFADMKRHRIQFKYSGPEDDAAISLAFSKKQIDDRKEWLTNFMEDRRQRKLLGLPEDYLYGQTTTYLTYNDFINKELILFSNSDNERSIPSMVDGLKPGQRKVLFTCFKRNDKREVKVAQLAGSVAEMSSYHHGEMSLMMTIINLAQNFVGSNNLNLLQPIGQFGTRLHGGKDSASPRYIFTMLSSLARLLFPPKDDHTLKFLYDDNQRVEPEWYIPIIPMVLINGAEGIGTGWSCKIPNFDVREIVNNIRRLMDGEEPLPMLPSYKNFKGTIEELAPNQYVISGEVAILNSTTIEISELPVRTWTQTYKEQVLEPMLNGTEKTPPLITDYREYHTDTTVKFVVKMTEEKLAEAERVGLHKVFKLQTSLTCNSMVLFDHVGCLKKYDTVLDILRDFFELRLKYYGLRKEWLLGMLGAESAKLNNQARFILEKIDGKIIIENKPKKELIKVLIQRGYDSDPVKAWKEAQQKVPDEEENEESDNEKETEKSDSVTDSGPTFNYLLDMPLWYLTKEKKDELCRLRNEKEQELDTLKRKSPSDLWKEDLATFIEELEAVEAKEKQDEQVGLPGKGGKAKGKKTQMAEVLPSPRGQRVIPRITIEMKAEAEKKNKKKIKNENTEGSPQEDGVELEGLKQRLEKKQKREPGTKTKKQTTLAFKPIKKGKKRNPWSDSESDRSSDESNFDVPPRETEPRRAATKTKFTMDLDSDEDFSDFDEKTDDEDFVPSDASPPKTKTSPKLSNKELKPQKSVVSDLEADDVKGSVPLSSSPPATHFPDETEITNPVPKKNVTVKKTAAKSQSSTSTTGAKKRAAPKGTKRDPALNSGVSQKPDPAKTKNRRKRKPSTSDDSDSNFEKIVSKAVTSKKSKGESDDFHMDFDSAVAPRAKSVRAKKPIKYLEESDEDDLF

O=c1nc(SCc2ccccc2)nc(SCc2ccccc2F)[nH]1
Activity [1]: 3.1% | Activity [2]: 34.3% | Activity [3]: 16.3% | Activity [4]: 1.4% | Activity [5]: 8.55% | Activity [6]: 92.6% | inhibition [7]: Dose-dependent effect | Activity [8]: 5.3% | Activity [9]: 93.7% | Activity [10]: 86.9% | Activity [11]: 1.6% | Activity [12]: 20.6% | Activity [13]: 2.3% | Activity [14]: 3% | Activity [15]: 0.115% | Activity [16]: 34.6% | Activity [17]: 0% | Activity [18]: 9.2% | Activity [19]: 33.5% | IC50 [20]: 72.5 µM | inhibition [21]: Dose-dependent effect | Activity [22]: 0% | logP [23]: 2.7 | Activity [24]: 91.5% | Activity [25]: 2.1% and 18.1% | Activity [26]: 18.5% | Activity [27]: 2.3%
